Data published in US20030166721A1, “Choline derivative for the treatment of alzheimer's disease” (priority 2000, published 2003).

Target: T1, Choline Specific Transport System (HUCT) (Rattus norvegicus, UniProt Q9JMD7)
T1 construct: from tissue; host or cells: brain of living Wistar rats (in vivo, ICV microinfusion, EEG read-out)
T1 sequence (Q9JMD7 1-580): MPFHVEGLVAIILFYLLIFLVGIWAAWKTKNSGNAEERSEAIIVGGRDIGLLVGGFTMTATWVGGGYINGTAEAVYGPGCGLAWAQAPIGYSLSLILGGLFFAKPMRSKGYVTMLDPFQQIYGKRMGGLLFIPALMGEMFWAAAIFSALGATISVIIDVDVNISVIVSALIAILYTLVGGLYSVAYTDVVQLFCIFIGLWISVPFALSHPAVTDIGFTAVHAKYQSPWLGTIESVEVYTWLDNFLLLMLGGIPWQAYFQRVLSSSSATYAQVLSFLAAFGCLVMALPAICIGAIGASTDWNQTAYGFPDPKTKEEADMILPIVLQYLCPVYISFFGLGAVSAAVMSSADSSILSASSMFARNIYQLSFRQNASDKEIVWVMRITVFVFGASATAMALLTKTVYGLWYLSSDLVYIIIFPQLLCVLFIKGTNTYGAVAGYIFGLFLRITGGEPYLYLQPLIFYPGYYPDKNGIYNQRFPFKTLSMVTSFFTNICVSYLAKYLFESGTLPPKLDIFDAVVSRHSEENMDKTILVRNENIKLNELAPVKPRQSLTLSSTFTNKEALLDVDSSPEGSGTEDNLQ
Experiment: EEG after ICV Hemicholinium-3 (choline uptake blocker) pretreatment
Assay type: in vivo
Settings: rats, i.p. at the active dose after Hch3 pretreatment
Protocol: FIG. 4B—Effect on EEG spectrum power after treatment with PC-1 (5 mg i.p.) administered 15 min after microinfusion of Hch3 (0.1 ng/0.5 μl) in the III ventricule. As in FIG. 4a, time (min) is reported in abscissa, the EEG spectrum power expressed as μV^2/s is reported in ordinate. Graphics report the EEG spectrum total power (0.25-16 Hz).

## CC(C)(C)C(=O)OCC[N+](C)(C)C.[I-] [PC-1, pivaloylcholine iodide]
  Alert response and EEG desynchronization after Hch3 pretreatment: induced neither alert response not EEG desynchronization
